In brackets after ≈: the same amount, converted by molar mass. Activity calls are given as the source filed them. The rule behind the calls is not given here.
Assays:
[1] = tested on: Enterococcus faecium; test: Antibacterial activity against Vancomycin-resistant Enterococcus faecium ATCC 51559 assessed as inhibition of bacterial growth measured after 20 hrs by two-fold microdilution assay; type: functional
[2] = tested on: Enterococcus faecium; test: Bactericidal activity against Vancomycin-susceptible Enterococcus faecium ATCC 19434 assessed as inhibition of bacterial growth measured after 20 hrs by two-fold microdilution assay; type: functional
[3] = tested on: Enterococcus faecium; test: Bactericidal activity against Vancomycin-resistant Enterococcus faecium ATCC 51559 assessed as inhibition of bacterial growth measured after 20 hrs by two-fold microdilution assay; type: functional
[4] = tested on: Staphylococcus aureus; test: Bactericidal activity against penicillin-resistant Staphylococcus aureus ATCC 31007 assessed as inhibition of bacterial growth measured after 20 hrs by two-fold microdilution assay; type: functional
[5] = tested on: Bacillus pumilus; test: Antibacterial activity against penicillin-susceptible Bacillus pumilus CMCC63202 assessed as inhibition of bacterial growth measured after 20 hrs by two-fold microdilution assay; type: functional
[6] = tested on: Enterococcus faecalis; test: Bactericidal activity against Vancomycin-resistant Enterococcus faecalis ATCC 51299 assessed as inhibition of bacterial growth measured after 20 hrs by two-fold microdilution assay; type: functional
[7] = tested on: Enterococcus faecium; test: Antibacterial activity against Vancomycin-susceptible Enterococcus faecium ATCC 19434 assessed as inhibition of bacterial growth measured after 20 hrs by two-fold microdilution assay; type: functional
[8] = tested on: Bacillus subtilis; test: Bactericidal activity against penicillin-susceptible Bacillus subtilis ATCC 9372 assessed as inhibition of bacterial growth measured after 20 hrs by two-fold microdilution assay; type: functional
[9] = tested on: Pseudomonas aeruginosa; test: Antibacterial activity against penicillin-susceptible Pseudomonas aeruginosa ATCC 27853 assessed as inhibition of bacterial growth measured after 20 hrs by two-fold microdilution assay; type: functional
[10] = tested on: Streptococcus pyogenes; test: Antibacterial activity against erythromycin-resistant Streptococcus pyogenes assessed as inhibition of bacterial growth measured after 20 hrs by two-fold microdilution assay; type: functional
[11] = tested on: Escherichia coli; test: Antibacterial activity against penicillin-susceptible Escherichia coli ATCC 25922 assessed as inhibition of bacterial growth measured after 20 hrs by two-fold microdilution assay; type: functional
[12] = tested on: Streptococcus pyogenes; test: Antibacterial activity against erythromycin-susceptible Streptococcus pyogenes assessed as inhibition of bacterial growth measured after 20 hrs by two-fold microdilution assay; type: functional
[13] = tested on: Staphylococcus aureus; test: Bactericidal activity against erythromycin-susceptible Staphylococcus aureus ATCC 25923 assessed as inhibition of bacterial growth measured after 20 hrs by two-fold microdilution assay; type: functional
[14] = tested on: Staphylococcus aureus; test: Bactericidal activity against methicillin-resistant Staphylococcus aureus ATCC43300 assessed as inhibition of bacterial growth measured after 20 hrs by two-fold microdilution assay; type: functional
[15] = target: T1, Cell division protein FtsZ (Bacillus subtilis (strain 168)) (UniProt P17865); test: Inhibition of Bacillus subtilis FtsZ assessed as promotion of FtsZ polymerization at 10 ug/ml measured after […] by fluorescence spectrometer based light scattering assay; conditions: dose 10.0 µg/ml
T1 sequence (whole entry): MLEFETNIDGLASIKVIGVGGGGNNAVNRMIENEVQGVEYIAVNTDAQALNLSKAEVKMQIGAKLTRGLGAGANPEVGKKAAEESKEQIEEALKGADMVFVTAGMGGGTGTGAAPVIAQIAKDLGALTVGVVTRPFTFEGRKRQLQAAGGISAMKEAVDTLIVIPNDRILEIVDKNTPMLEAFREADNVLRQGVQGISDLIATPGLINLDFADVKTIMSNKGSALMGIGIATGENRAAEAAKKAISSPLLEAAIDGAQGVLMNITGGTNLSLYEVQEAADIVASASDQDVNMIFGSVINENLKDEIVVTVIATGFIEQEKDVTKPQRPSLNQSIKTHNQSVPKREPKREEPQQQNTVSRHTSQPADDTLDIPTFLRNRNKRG

[16] = tested on: Staphylococcus aureus; test: Antibacterial activity against Staphylococcus aureus ATCC 25923 assessed as decrease of bacterial growth at 32 ug/ml measured up to 24 hrs by Time kill assay; type: functional, organism-based; conditions: dose 32.0 µg/ml, time hrs <=24
[17] = tested on: Bacillus subtilis; test: Antibacterial activity against penicillin-susceptible Bacillus subtilis ATCC 9372 assessed as inhibition of bacterial growth measured after 20 hrs by two-fold microdilution assay; type: functional
[18] = tested on: Staphylococcus epidermidis; test: Antibacterial activity against penicillin-resistant Staphylococcus epidermidis assessed as inhibition of bacterial growth measured after 20 hrs by two-fold microdilution assay; type: functional
[19] = tested on: Bacillus pumilus; test: Bactericidal activity against penicillin-susceptible Bacillus pumilus CMCC63202 assessed as inhibition of bacterial growth measured after 20 hrs by two-fold microdilution assay; type: functional
[20] = tested on: Enterococcus faecalis; test: Bactericidal activity against Vancomycin-susceptible Enterococcus faecalis ATCC 29212 assessed as inhibition of bacterial growth measured after 20 hrs by two-fold microdilution assay; type: functional
[21] = tested on: Staphylococcus aureus; test: Ratio of MBC to MIC against penicillin-resistant Staphylococcus aureus ATCC 31007; type: functional
[22] = tested on: Enterococcus faecalis; test: Antibacterial activity against Vancomycin-resistant Enterococcus faecalis ATCC 51299 assessed as inhibition of bacterial growth measured after 20 hrs by two-fold microdilution assay; type: functional
[23] = tested on: Bacillus subtilis; test: Ratio of MBC to MIC against penicillin-susceptible Bacillus subtilis ATCC 9372; type: functional
[24] = tested on: Staphylococcus aureus; test: Antibacterial activity against penicillin-resistant Staphylococcus aureus ATCC 31007 assessed as inhibition of bacterial growth measured after 20 hrs by two-fold microdilution assay; type: functional
[25] = tested on: Staphylococcus aureus; test: Ratio of MBC to MIC against erythromycin-susceptible Staphylococcus aureus ATCC 25923; type: functional
[26] = tested on: Enterococcus faecium; test: Ratio of MBC to MIC against Vancomycin-susceptible Enterococcus faecium ATCC 19434; type: functional
[27] = tested on: Staphylococcus aureus; test: Ratio of MBC to MIC against methicilline-resistant Staphylococcus aureus ATCC43300; type: functional
[28] = tested on: Enterococcus faecalis; test: Ratio of MBC to MIC against Vancomycin-susceptible Enterococcus faecalis ATCC 29212; type: functional
[29] = tested on: Enterococcus faecium; test: Ratio of MBC to MIC against Vancomycin-resistant Enterococcus faecium ATCC 51559; type: functional
[30] = tested on: Bacillus pumilus; test: Ratio of MBC to MIC against penicillin-susceptible Bacillus pumilus CMCC63202; type: functional
[31] = tested on: Enterococcus faecalis; test: Antibacterial activity against Vancomycin-susceptible Enterococcus faecalis ATCC 29212 assessed as inhibition of bacterial growth measured after 20 hrs by two-fold microdilution assay; type: functional
[32] = tested on: Staphylococcus aureus; test: Antibacterial activity against methicillin-resistant Staphylococcus aureus ATCC43300 assessed as inhibition of bacterial growth measured after 20 hrs by two-fold microdilution assay; type: functional
[33] = tested on: Staphylococcus aureus; test: Antibacterial activity against erythromycin-susceptible Staphylococcus aureus ATCC 25923 assessed as inhibition of bacterial growth measured after 20 hrs by two-fold microdilution assay; type: functional
[34] = tested on: Staphylococcus aureus; test: Antibacterial activity against clinical isolate Staphylococcus aureus C1 assessed as inhibition of bacterial growth measured after 20 hrs by two-fold microdilution assay; type: functional

SMILES	MIC [1]	MBC [2]	MBC [3]	MBC [4]	MIC [5]	MBC [6]	MIC [7]	MBC [8]	MIC [9]	MIC [10]	MIC [11]	MIC [12]	MBC [13]	MBC [14]	MIC [17]	MIC [18]	MBC [19]	MBC [20]	MIC [22]	MIC [24]	also measured
CC(=O)NC[C@H]1CN(c2ccc(N3CCOCC3)c(F)c2)C(=O)O1 [LINEZOLID]	4 µg/mL (≈ 11.9 µM)	> 64 µg/mL	64 µg/mL (≈ 190 µM)	16 µg/mL (≈ 47.4 µM)	2 µg/mL (≈ 5.93 µM)	64 µg/mL (≈ 190 µM)	4 µg/mL (≈ 11.9 µM)	64 µg/mL (≈ 190 µM)	> 64 µg/mL	1 µg/mL (≈ 2.96 µM)	> 64 µg/mL	1 µg/mL (≈ 2.96 µM)	128 µg/mL (≈ 379 µM)	8 µg/mL (≈ 23.7 µM)	0.5 µg/mL (≈ 1.48 µM)	4 µg/mL (≈ 11.9 µM)	16 µg/mL (≈ 47.4 µM)	64 µg/mL (≈ 190 µM)			inhibition [15]: inactive; Activity [16]: Active
Cc1ccc2c[n+](C)c3ccc(-c4ccc5ccn(Cc6ccc(OC(F)(F)F)cc6)c5c4)cc3c2c1.[Cl-]	4 µg/mL	16 µg/mL	32 µg/mL	4 µg/mL	4 µg/mL	16 µg/mL	4 µg/mL	4 µg/mL	> 64 µg/mL	8 µg/mL	> 64 µg/mL	8 µg/mL	4 µg/mL	4 µg/mL	4 µg/mL	2 µg/mL	32 µg/mL	16 µg/mL	4 µg/mL	4 µg/mL	Ratio [21]: 1; Ratio [23]: 1; Ratio [25]: 2; Ratio [26]: 4; Ratio [27]: 1; Ratio [28]: 4; Ratio [29]: 8; Ratio [30]: 8; MIC [31]: 4 µg/mL; MIC [32]: 4 µg/mL; MIC [33]: 2 µg/mL; MIC [34]: 4 µg/mL
C[n+]1cc2c3c(ccc2c2ccc4cc5c(cc4c21)OCO5)OCO3 [SANGUINARIUM]	32 µg/mL	> 64 µg/mL	> 64 µg/mL	> 64 µg/mL	4 µg/mL	> 64 µg/mL	64 µg/mL	> 128 µg/mL	> 64 µg/mL	2 µg/mL	32 µg/mL	2 µg/mL	128 µg/mL	128 µg/mL	2 µg/mL	8 µg/mL	32 µg/mL	> 64 µg/mL	32 µg/mL	16 µg/mL	Ratio [25]: 32; Ratio [27]: 16; Ratio [30]: 8; MIC [31]: 16 µg/mL; MIC [32]: 8 µg/mL; MIC [33]: 4 µg/mL; MIC [34]: 4 µg/mL

Reference: ChEMBL document CHEMBL4828726, “Modification of 5-methylphenanthridium from benzothiazoles to indoles as potent FtsZ inhibitors: Broadening the antibacterial spectrum toward vancomycin-resistant enterococci” (Eur J Med Chem, 2021)
